Test results published in US20240391862A1, “(1,4,5-TRISUBSTITUTED-1H-PYRAZOL-3-YL)OXY-2-ALKOXY ALKYL ACIDS AND THEIR DERIVATIVES, THEIR SALTS AND THEIR USE AS HERBICIDAL AGENTS” (Bayer AKtiengesellschaft, priority 2021, published 2024).

How the values were obtained:
ZEAMX = experiment: Post-emergence herbicidal effect and crop plant compatibility, greenhouse pot test; format: in vivo, Zea mays; conditions: one-leaf stage, rated visually after about 3 weeks vs untreated controls; for plant injury at 20 g/ha: read-out: Post-emergence effect at 20 g/ha against ZEAMX in %
How it was run: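 Greenhouse pot plants in sandy loam receive a one-leaf-stage spray at 20 to 320 g/ha. Activity is assessed visually around 3 weeks afterwards on a 0–100% scale, where 100% means the plants have died.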

ABUTH = experiment: Post-emergence herbicidal effect, greenhouse pot test; format: in vivo, Abutilon theophrasti; conditions: visual rating about 3 weeks after treatment; for pest or weed control at 80 g/ha / pest or weed control at 320 g/ha: Abutilon theophrasti, 504 h, read-out: Post-emergence effect against ABUTH
How it was run: (§1)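 Weeds sown in sandy loam, greenhouse-grown 2–3 weeks, then sprayed at one-leaf stage with WP or EC formulations in water plus 0.5% additive at 600 l/ha. Rates 20 to 320 g/ha. Visual rating after about 3 weeks versus untreated controls (100% = plants dead, 0% = like control).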

ALOMY = experiment: as above; format: in vivo, Alopecurus myosuroides; conditions: 320 g/ha, visual rating about 3 weeks after treatment; for pest or weed control at 320 g/ha: Alopecurus myosuroides, 504 h, read-out: Post-emergence effect against ALOMY
How it was run: as §1

AMARE = experiment: as above; format: in vivo, Amaranthus retroflexus; conditions: visual rating about 3 weeks after treatment; for pest or weed control at 320 g/ha: Amaranthus retroflexus, 504 h, read-out: Post-emergence effect against AMARE
How it was run: as §1

AVEFA = experiment: as above; format: in vivo, Avena fatua; conditions: visual rating about 3 weeks after treatment; for pest or weed control at 80 g/ha / pest or weed control at 320 g/ha: Avena fatua, 504 h, read-out: Post-emergence effect against AVEFA
How it was run: as §1

DIGSA = experiment: as above; format: in vivo, Digitaria sanguinalis; conditions: visual rating about 3 weeks after treatment
How it was run: as §1

ECHCG = experiment: as above; format: in vivo, Echinochloa crus-galli; conditions: for pest or weed control at 80 g/ha / pest or weed control at 320 g/ha: Echinochloa crus-galli, 504 h, read-out: Post-emergence effect against ECHCG in %
How it was run: as §1

LOLRI = experiment: as above; format: in vivo, Lolium rigidum; conditions: for pest or weed control at 80 g/ha / pest or weed control at 320 g/ha: Lolium rigidum, 504 h, read-out: Post-emergence effect against LOLRI in %
How it was run: as §1

MATIN = experiment: as above; format: in vivo, Tripleurospermum inodorum; conditions: for pest or weed control at 320 g/ha: Tripleurospermum inodorum, 504 h, read-out: Post-emergence effect against MATIN in %
How it was run: as §1

PHBPU = experiment: as above; format: in vivo, Ipomoea purpurea; conditions: for pest or weed control at 80 g/ha / pest or weed control at 320 g/ha: Ipomoea purpurea, 504 h, read-out: Post-emergence effect against PHBPU in %
How it was run: as §1

POLCO = experiment: as above; format: in vivo, Fallopia convolvulus; conditions: for Post-emergence effect against POLCO in % / pest or weed control at 320 g/ha: 320 g/ha; for pest or weed control at 80 g/ha / pest or weed control at 320 g/ha: Fallopia convolvulus, 504 h, read-out: Post-emergence effect against POLCO in %
How it was run: as §1

SETVI = experiment: as above; format: in vivo, Setaria viridis; conditions: for pest or weed control at 320 g/ha: Setaria viridis, 504 h, read-out: Post-emergence effect against SETVI in %
How it was run: as §1

VERPE = experiment: as above; format: in vivo, Veronica persica; conditions: for pest or weed control at 320 g/ha: Veronica persica, 504 h, read-out: Post-emergence effect against VERPE in %
How it was run: as §1

VIOTR = experiment: as above; format: in vivo, Viola tricolor; conditions: for pest or weed control at 80 g/ha / pest or weed control at 320 g/ha: Viola tricolor, 504 h, read-out: Post-emergence effect against VIOTR in %
How it was run: as §1

KCHSC = experiment: as above; format: in vivo
How it was run: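 Visual rating of activity against untreated plants (100% = plants died, 0% = no effect), done about 3 weeks after treatment. Compounds applied at 20–320 g/ha as aqueous spray (600 l/ha, 0.5% additive) from WP or EC formulations onto one-leaf-stage plants grown in sandy loam under greenhouse conditions.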

[1] = Digitaria sanguinalis, 504 h, 320 g/ha, read-out: Post-emergence effect against DIGSA

COC(=O)CCOC(=O)C(OC)Oc1nn(-c2ccccc2F)c(-c2ccc(F)nc2)c1C1CC1 (single isomer, unassigned) [Example I-74]
Post-emergence effect at 20 g/ha against ZEAMX in % (ZEAMX): 0% | Post-emergence effect against ABUTH (ABUTH; 20 g/ha): 80% | Post-emergence effect against ABUTH (ABUTH; 80 g/ha): 80% | Post-emergence effect against ABUTH (ABUTH; 320 g/ha): 90% | Post-emergence effect against ALOMY (ALOMY): 90% | Post-emergence effect against AMARE (AMARE; 20 g/ha): 80% | Post-emergence effect against AMARE (AMARE; 80 g/ha): 80% | Post-emergence effect against AMARE (AMARE; 320 g/ha): 80% | Post-emergence effect against AVEFA (AVEFA; 80 g/ha): 90% | Post-emergence effect against AVEFA (AVEFA; 320 g/ha): 90% | Post-emergence effect against DIGSA (DIGSA; 80 g/ha): 80% | Post-emergence effect against DIGSA (DIGSA; 320 g/ha): 90% | Post-emergence effect against ECHCG (ECHCG; 20 g/ha, visual rating about 3 weeks after treatment): 90% | Post-emergence effect against ECHCG in % (ECHCG; 80 g/ha): 90% | Post-emergence effect against ECHCG in % (ECHCG; 320 g/ha): 90% | Post-emergence effect against LOLRI in % (LOLRI; 320 g/ha): 90% | Post-emergence effect against MATIN in % (MATIN; 80 g/ha): 80% | Post-emergence effect against MATIN in % (MATIN; 320 g/ha): 80% | Post-emergence effect against PHBPU in % (PHBPU; 20 g/ha): 80% | Post-emergence effect against PHBPU in % (PHBPU; 80 g/ha): 90% | Post-emergence effect against PHBPU in % (PHBPU; 320 g/ha): 90% | Post-emergence effect against POLCO in % (POLCO): 90% | Post-emergence effect against SETVI in % (SETVI; 80 g/ha): 90% | Post-emergence effect against SETVI in % (SETVI; 320 g/ha): 90% | Post-emergence effect against VERPE in % (VERPE; 80 g/ha): 90% | Post-emergence effect against VERPE in % (VERPE; 320 g/ha): 90% | Post-emergence effect against VIOTR in % (VIOTR; 20 g/ha): 80% | Post-emergence effect against VIOTR in % (VIOTR; 80 g/ha): 90% | Post-emergence effect against VIOTR in % (VIOTR; 320 g/ha): 90% | Post-emergence effect against KCHSC in % (KCHSC; 320 g/ha): 90%

COC(=O)CCOC(=O)C(OC)Oc1nn(-c2ccccc2F)c(-c2ccc(F)nc2)c1C1CC1 (single isomer, unassigned) [Example I-75]
Post-emergence effect at 20 g/ha against ZEAMX in % (ZEAMX): 0% | Post-emergence effect at 80 g/ha against ZEAMX in % (ZEAMX; 80 g/ha): 0% | Post-emergence effect against ABUTH (ABUTH; 20 g/ha): 80% | Post-emergence effect against ABUTH (ABUTH; 80 g/ha): 80% | Post-emergence effect against ABUTH (ABUTH; 320 g/ha): 90% | Post-emergence effect against ALOMY (ALOMY): 80% | Post-emergence effect against AMARE (AMARE; 320 g/ha): 90% | Post-emergence effect against AVEFA (AVEFA; 320 g/ha): 90% | Post-emergence effect against DIGSA (DIGSA; 80 g/ha): 80% | Post-emergence effect against DIGSA (DIGSA; 320 g/ha): 80% | Post-emergence effect against ECHCG in % (ECHCG; 80 g/ha): 90% | Post-emergence effect against ECHCG in % (ECHCG; 320 g/ha): 90% | Post-emergence effect against LOLRI in % (LOLRI; 80 g/ha): 80% | Post-emergence effect against LOLRI in % (LOLRI; 320 g/ha): 90% | Post-emergence effect against MATIN in % (MATIN; 80 g/ha): 80% | Post-emergence effect against MATIN in % (MATIN; 320 g/ha): 80% | Post-emergence effect against PHBPU in % (PHBPU; 80 g/ha): 80% | Post-emergence effect against PHBPU in % (PHBPU; 320 g/ha): 90% | Post-emergence effect against POLCO in % (POLCO): 80% | Post-emergence effect against SETVI in % (SETVI; 80 g/ha): 80% | Post-emergence effect against SETVI in % (SETVI; 320 g/ha): 90% | Post-emergence effect against VERPE in % (VERPE; 80 g/ha): 80% | Post-emergence effect against VERPE in % (VERPE; 320 g/ha): 90% | Post-emergence effect against VIOTR in % (VIOTR; 80 g/ha): 80% | Post-emergence effect against VIOTR in % (VIOTR; 320 g/ha): 90% | Post-emergence effect against KCHSC in % (KCHSC; 320 g/ha): 90%

CCOC(=O)C(OC)Oc1nn(-c2ncccc2F)c(-c2ccc(F)nc2)c1Br (stereo not drawn) [Example I-14]
plant injury at 20 g/ha (ZEAMX; Zea mays, 504 h): 0% | pest or weed control at 80 g/ha (ABUTH; 80 g/ha): 90% | pest or weed control at 320 g/ha (ABUTH; 320 g/ha): 90% | pest or weed control at 320 g/ha (ALOMY): 90% | pest or weed control at 320 g/ha (AMARE; 320 g/ha): 80% | pest or weed control at 80 g/ha (AVEFA; 80 g/ha): 90% | pest or weed control at 320 g/ha (AVEFA; 320 g/ha): 90% | pest or weed control at 80 g/ha (DIGSA; Digitaria sanguinalis, 504 h, 80 g/ha, read-out: Post-emergence effect against DIGSA): 80% | pest or weed control at 320 g/ha (DIGSA; [1]): 90% | pest or weed control at 80 g/ha (ECHCG; 80 g/ha): 90% | pest or weed control at 320 g/ha (ECHCG; 320 g/ha): 90% | pest or weed control at 80 g/ha (LOLRI; 80 g/ha): 90% | pest or weed control at 320 g/ha (LOLRI; 320 g/ha): 90% | pest or weed control at 320 g/ha (MATIN; 320 g/ha): 90% | pest or weed control at 80 g/ha (PHBPU; 80 g/ha): 80% | pest or weed control at 320 g/ha (PHBPU; 320 g/ha): 90% | pest or weed control at 80 g/ha (POLCO): 80% | pest or weed control at 320 g/ha (POLCO): 80% | pest or weed control at 320 g/ha (SETVI; 320 g/ha): 90% | pest or weed control at 320 g/ha (VERPE; 320 g/ha): 90% | pest or weed control at 80 g/ha (VIOTR; 80 g/ha): 90% | pest or weed control at 320 g/ha (VIOTR; 320 g/ha): 90% | pest or weed control at 80 g/ha (KCHSC; 504 h, 80 g/ha, read-out: Post-emergence effect against KCHSC in %): 90% | pest or weed control at 320 g/ha (KCHSC; 504 h, 320 g/ha, read-out: Post-emergence effect against KCHSC in %): 90%

COC(=O)C(OC)Oc1nn(-c2ncccc2F)c(-c2ccc(F)nc2)c1C1CC1 (stereo not drawn) [Example I-40]
Post-emergence effect at 320 g/ha against ZEAMX in % (ZEAMX; 320 g/ha): 0% | plant injury at 20 g/ha (ZEAMX; Zea mays, 504 h): 0% | plant injury at 80 g/ha (ZEAMX; Zea mays, 504 h, 80 g/ha, read-out: Post-emergence effect at 80 g/ha against ZEAMX in %): 0% | pest or weed control at 80 g/ha (ABUTH; 80 g/ha): 90% | pest or weed control at 320 g/ha (ABUTH; 320 g/ha): 90% | pest or weed control at 320 g/ha (ALOMY): 90% | pest or weed control at 320 g/ha (AMARE; 320 g/ha): 80% | pest or weed control at 80 g/ha (AVEFA; 80 g/ha): 80% | pest or weed control at 320 g/ha (AVEFA; 320 g/ha): 90% | pest or weed control at 320 g/ha (DIGSA; [1]): 90% | pest or weed control at 80 g/ha (ECHCG; 80 g/ha): 90% | pest or weed control at 320 g/ha (ECHCG; 320 g/ha): 90% | pest or weed control at 80 g/ha (LOLRI; 80 g/ha): 90% | pest or weed control at 320 g/ha (LOLRI; 320 g/ha): 90% | pest or weed control at 320 g/ha (MATIN; 320 g/ha): 80% | pest or weed control at 80 g/ha (PHBPU; 80 g/ha): 90% | pest or weed control at 320 g/ha (PHBPU; 320 g/ha): 90% | pest or weed control at 80 g/ha (POLCO): 90% | pest or weed control at 320 g/ha (POLCO): 90% | pest or weed control at 320 g/ha (SETVI; 320 g/ha): 90% | pest or weed control at 320 g/ha (VERPE; 320 g/ha): 90% | pest or weed control at 80 g/ha (VIOTR; 80 g/ha): 90% | pest or weed control at 320 g/ha (VIOTR; 320 g/ha): 90% | Post-emergence effect against KCHSC in % (KCHSC; 80 g/ha): 90% | Post-emergence effect against KCHSC in % (KCHSC; 320 g/ha): 90%
